One data set has as its target T1, Human recombinant PDE4C1 (Homo sapiens, UniProt Q08493).
T1 construct: purchased BPS Bioscience; host or cells: insect Sf9 cells
The data set can be described thus: Human phosphodiesterase 4 (PDE4) inhibition, PDE4C1. The class given is biochemical. The following applies: read-out: % inhibition range at 10 uM PDE4C1. On the procedure: (§1) […] Human recombinant PDE4A1A, PDE4B 1, PDE4C1 and PDE4D2 are respectively expressed in each host cell (insect Sf9 cells, BPS Bioscience). Preincubation of 10 μM test compounds or vehicle was proceeded with 20 ng/ml PDE4A1A or 4 ng/ml PDE4B 1 or 8 ng/ml PDE4C1 or 5 ng/ml PDE4D2 enzyme in Tris-HCl buffer pH 7.2 for 15 minutes at 25° C. 100 nM fluorescein (FAM) labeled cAMP for another 30 minutes incubation period was added in order to initiate the enzymatic reaction and addition of IMAP binding solution was followed for its termination. Specifically, IMAP complexes with phosphate groups on nucleotide monophosphate generated from cyclic nucleotides through PDE activity. The amount of complex formed is determined by reading spectrofluorimetrical signal at 470 nm/525 nm.

Data set [1] has as its target T2, Human recombinant PDE4B 1 (Homo sapiens, UniProt Q07343).
T2 construct: purchased BPS Bioscience; host or cells: insect Sf9 cells
Briefly: Human phosphodiesterase 4 (PDE4) inhibition, PDE4B 1. The following applies: read-out: % inhibition range at 10 uM PDE4B1. It is filed as biochemical. On the procedure:
as §1

Data set [2] deals with T3, human wild type-CFTR (Homo sapiens, UniProt P13569). Briefly: Cell-based YFP assay. The settings on record: CHO-K1 cells expressing human wild type-CFTR and YFP-H148Q/I152L; forskolin 20 μM = 100% activity; read-out: Cell-based YFP Assay (EC50) Concentration Range. More on the design: expressed in transfected cells; host or cells: CHO-K1 (Chinese hamster ovary). In short, it runs like this: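 CHO-K1 cells co-expressing human wild-type CFTR and YFP-H148Q/I152L halide sensor, grown 48 h at 37 °C, then in PBS. YFP quenching by I⁻ influx read at 37 °C after adding 140 mM I⁻ solution, sampled every 0.4 s for 14 s. Triplicates averaged; EC50 fitted.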
T3 sequence (P13569 whole entry): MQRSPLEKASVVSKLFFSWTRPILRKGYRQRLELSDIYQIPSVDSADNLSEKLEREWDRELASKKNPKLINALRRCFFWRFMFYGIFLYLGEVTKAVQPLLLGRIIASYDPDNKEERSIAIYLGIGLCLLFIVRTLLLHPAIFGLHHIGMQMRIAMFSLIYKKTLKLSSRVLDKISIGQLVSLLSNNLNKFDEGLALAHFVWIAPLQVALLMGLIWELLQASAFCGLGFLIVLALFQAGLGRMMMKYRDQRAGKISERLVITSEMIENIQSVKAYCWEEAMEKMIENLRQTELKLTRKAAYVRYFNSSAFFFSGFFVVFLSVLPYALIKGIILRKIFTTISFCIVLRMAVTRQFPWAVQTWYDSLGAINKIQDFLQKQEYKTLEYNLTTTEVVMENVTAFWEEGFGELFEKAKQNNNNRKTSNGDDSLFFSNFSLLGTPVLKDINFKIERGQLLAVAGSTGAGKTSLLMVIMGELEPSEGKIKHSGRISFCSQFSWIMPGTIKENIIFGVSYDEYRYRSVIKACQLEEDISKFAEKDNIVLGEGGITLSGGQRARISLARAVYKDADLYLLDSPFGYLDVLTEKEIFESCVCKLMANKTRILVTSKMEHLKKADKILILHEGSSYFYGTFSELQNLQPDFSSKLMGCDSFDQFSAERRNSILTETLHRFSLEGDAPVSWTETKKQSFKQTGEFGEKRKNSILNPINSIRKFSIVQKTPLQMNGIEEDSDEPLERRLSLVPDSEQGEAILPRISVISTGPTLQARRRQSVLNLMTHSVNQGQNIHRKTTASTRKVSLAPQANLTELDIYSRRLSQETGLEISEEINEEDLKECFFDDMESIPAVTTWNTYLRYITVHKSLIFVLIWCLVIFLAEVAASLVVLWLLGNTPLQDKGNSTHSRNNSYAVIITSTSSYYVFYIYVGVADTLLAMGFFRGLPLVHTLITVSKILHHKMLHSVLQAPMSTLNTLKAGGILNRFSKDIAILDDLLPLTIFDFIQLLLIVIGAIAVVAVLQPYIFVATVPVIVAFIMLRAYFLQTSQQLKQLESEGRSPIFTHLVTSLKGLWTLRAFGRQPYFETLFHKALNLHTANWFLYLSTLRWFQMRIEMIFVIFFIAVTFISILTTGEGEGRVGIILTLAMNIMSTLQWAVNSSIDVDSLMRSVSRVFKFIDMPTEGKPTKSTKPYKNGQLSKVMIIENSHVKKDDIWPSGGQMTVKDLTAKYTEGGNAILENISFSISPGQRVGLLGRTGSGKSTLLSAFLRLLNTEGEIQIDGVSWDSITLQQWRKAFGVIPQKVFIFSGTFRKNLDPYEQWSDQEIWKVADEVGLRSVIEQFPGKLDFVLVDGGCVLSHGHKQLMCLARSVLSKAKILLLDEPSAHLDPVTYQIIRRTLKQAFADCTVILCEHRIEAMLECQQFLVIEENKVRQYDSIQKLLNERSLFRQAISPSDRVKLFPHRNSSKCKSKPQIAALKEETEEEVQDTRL

A short description of data set [3]: Phosphate-buffered saline (PBS) solubility of compounds. It is filed as physicochemical. The following applies: aqueous buffer, thermodynamic from solid, PBS pH 7.5, 0.5 mg/mL, vortexed 90 min, filtered, LC-MS/MS, read-out: Solubility Range. On the procedure: PBS solutions (pH 7.5) were prepared according to the following compositions and stored at 4° C. Test compounds were dissolved in PBS (pH 7.5) at 0.5 mg/mL and vortexed for 90 min. The PBS solution was sequentially filtered through a 0.45, 1.2, […] syringe filter. Concentration of test compounds were determined using LC-MS/MS with appropriate dilution of the samples.

The target of data set [4] is T4, Human recombinant PDE4A1A (Homo sapiens, UniProt P27815).
T4 construct: purchased BPS Bioscience; host or cells: insect Sf9 cells
T4 sequence (P27815 1-647 isoform P27815-4): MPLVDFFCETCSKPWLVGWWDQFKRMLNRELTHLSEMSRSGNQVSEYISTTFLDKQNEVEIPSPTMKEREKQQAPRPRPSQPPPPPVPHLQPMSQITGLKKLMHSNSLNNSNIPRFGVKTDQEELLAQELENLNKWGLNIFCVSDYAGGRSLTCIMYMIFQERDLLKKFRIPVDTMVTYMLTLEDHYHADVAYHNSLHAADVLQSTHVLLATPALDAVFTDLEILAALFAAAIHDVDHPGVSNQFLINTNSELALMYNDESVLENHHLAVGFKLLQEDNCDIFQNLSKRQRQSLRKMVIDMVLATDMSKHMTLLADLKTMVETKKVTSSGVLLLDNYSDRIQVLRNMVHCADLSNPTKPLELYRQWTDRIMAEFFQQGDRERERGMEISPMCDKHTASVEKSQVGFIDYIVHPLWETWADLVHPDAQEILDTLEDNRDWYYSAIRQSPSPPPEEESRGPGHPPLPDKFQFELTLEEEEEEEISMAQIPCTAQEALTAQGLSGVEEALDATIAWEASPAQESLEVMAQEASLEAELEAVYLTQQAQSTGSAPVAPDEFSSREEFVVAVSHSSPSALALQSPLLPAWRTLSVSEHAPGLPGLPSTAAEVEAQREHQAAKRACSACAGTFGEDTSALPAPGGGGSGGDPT
The data set can be described thus: Human phosphodiesterase 4 (PDE4) inhibition, PDE4A1A. The class given is biochemical. The following applies: read-out: % inhibition range at 10 uM PDE4A1A. How it is done:
as §1

In data set [5] the target is T3, human wild type-CFTR. The data set can be described thus: Short-circuit current measurement. Further details: expressed in transfected cells. The class given is cell-based. The following applies: FRT cells expressing human wild type-CFTR; Forskolin 20 μM signal used as 100% activity; read-out: Short-circuit current measurement (EC50) Concentration range. In short, it runs like this: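 Ussing-chamber short-circuit current in FRT cells expressing human wild-type CFTR, grown on Snapwell inserts. Forskolin, test compounds and CFTRinh-172 added to both apical and basolateral baths; apical membrane current and Isc sampled at 4 Hz.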

A further data set deals with T5, Human recombinant PDE4D2 (Homo sapiens, UniProt Q08499).
T5 construct: purchased BPS Bioscience; host or cells: insect Sf9 cells
T5 sequence (Q08499 303-809 limits assumed): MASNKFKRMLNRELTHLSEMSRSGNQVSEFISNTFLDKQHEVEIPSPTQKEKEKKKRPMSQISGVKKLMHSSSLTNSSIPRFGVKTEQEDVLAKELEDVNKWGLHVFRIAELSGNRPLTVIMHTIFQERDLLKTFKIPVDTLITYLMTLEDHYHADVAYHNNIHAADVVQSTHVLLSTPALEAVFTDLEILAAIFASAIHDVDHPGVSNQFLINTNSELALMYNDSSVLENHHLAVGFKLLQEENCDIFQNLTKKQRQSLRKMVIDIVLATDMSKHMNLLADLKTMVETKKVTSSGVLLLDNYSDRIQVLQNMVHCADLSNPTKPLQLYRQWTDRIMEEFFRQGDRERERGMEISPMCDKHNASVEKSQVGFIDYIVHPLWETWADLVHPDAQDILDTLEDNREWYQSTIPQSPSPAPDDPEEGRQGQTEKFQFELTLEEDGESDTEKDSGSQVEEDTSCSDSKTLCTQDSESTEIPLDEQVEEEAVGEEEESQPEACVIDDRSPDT
The data set can be described thus: Human phosphodiesterase 4 (PDE4) inhibition, PDE4D2. The following applies: read-out: % inhibition range at 10 uM PDE4D2. It is filed as biochemical. How it is done:
as §1

The next data set deals with C57BL/6 female mice. Briefly: Scopolamine induced tear volume reduction model. It is filed as in vivo, mouse. The settings on record: scopolamine-injected mice, ophthalmic solution topically on both eyes 3 times a day, phenol red thread; average if evaluated twice. How it is done: Seven-week old C57BL/6 female mice were used.
Scopolamine hydrobromide was purchased from Sigma Aldrich (Cat No. S0929), dissolved in saline, and sterilized prior to use.
Zone-Quick phenol red thread was obtained from Menicon.
The test compounds used in this experiment were dissolved in PBS containing 1% of surfactant.
Scopolamine (0.2 ml of 2.5 mg/mL solution) was injected subcutaneously 3 times a day to induce a decrease in the tear volume in the mouse. At the same time, the ophthalmic solution of test compounds or vehicle were topically administered onto both eyes 3 times a day. Tear volume was measured by phenol red thread before dosing (basal level) and 1 hour after the last administration of scopolamine and ophthalmic solution. The results were obtained by measuring the length of the phenol red thread turning red by tears. The schedule of study is expressed as FIG. 1.
If the test compound was evaluated twice, the average value was used.

We go through eleven compounds from US20240199623A1 (ILDONG PHARMACEUTICAL CO., LTD., priority 2020, published 2024).

The term inhibition denotes the relative decrease from the control value, in per cent. As usually defined, the solubility is how much of the substance goes into solution per volume.

Molecules are shown by their SMILES. Converted amounts (≈) assume the structure as drawn. Where two headings read alike, the source gives them in different places.

T1 sequence (Q08493 whole entry): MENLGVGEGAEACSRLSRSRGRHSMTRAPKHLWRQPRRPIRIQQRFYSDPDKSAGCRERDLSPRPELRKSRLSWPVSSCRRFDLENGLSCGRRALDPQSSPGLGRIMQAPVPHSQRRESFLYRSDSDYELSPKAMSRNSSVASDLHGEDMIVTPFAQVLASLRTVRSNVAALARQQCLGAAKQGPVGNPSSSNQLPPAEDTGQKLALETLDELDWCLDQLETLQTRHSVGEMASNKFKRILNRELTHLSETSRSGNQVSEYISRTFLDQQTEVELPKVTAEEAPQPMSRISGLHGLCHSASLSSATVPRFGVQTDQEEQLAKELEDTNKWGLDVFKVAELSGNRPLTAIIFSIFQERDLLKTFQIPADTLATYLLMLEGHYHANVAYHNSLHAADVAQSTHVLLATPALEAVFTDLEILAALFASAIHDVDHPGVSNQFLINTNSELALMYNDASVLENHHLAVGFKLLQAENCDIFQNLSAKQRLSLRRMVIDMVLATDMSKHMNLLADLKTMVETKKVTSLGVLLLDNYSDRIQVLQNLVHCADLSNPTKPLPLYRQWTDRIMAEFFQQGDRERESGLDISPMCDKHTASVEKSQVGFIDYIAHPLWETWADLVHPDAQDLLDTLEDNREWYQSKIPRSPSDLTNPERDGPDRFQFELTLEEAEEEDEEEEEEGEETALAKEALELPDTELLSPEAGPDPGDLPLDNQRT
T2 sequence (Q07343 whole entry): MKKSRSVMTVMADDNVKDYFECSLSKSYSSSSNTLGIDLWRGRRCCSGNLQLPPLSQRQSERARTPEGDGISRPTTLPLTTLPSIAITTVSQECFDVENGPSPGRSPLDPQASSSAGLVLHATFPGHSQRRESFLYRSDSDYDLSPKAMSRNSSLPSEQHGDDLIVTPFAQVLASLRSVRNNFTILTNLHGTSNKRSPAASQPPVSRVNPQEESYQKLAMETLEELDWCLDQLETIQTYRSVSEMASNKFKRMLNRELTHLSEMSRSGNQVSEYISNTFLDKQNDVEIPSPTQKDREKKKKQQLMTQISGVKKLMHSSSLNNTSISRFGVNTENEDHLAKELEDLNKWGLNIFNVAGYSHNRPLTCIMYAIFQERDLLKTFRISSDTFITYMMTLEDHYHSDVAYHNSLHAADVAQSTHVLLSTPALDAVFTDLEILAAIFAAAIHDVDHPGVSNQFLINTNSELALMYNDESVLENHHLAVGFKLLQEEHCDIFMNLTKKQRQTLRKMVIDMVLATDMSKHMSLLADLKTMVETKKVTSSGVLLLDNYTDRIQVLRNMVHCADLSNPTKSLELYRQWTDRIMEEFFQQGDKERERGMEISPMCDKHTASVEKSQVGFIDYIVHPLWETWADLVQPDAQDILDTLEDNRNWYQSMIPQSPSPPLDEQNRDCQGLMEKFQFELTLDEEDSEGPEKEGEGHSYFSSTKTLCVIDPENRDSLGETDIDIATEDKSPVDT

Take `COC(=O)C12CCC(NC(=O)c3cc4nccc(-c5ccc(OC)c(OC)c5)n4n3)(CC1)CC2` [Compound 144, methyl 4-(7-(3,4-dimethoxyphenyl)pyrazolo[1,5-a]pyrimidine-2-carboxamido)bicyclo[2.2.2]octane-1-carboxylate]: the inhibition at 10 µM (at Human recombinant PDE4C1 (10 uM test compound); in data set [1] (10 uM test compound); in data set [4] (10 uM test compound); on Human recombinant PDE4D2 (10 uM test compound)) was greater than 80% throughout. The EC50 at human wild type-CFTR [2] and at human wild type-CFTR [5] was less than 0.2 µM throughout. Moreover, the solubility at 90 min in data set [3] is less than 0.1 µg/mL. Besides, the “Ratio of tear volume (test compound to vehicle)” value (shortened to “Ratio of tear volume”) in the data set on C57BL/6 female mice is on record as 1.18.
`COC(=O)c1ccc(CNC(=O)c2cc3nccc(-c4ccc(OC)c(OC)c4)n3n2)cc1` [Compound 12, methyl 4-((7-(3,4-dimethoxyphenyl)pyrazolo [1,5-a]pyrimidine-2-carboxamido)methyl) benzoate]: the inhibition at 10 µM at Human recombinant PDE4C1 (10 uM test compound) was 50 to 80%; in data set [1] (10 uM test compound) it was 50 to 80%; in data set [4] (10 uM test compound) it was greater than 80%; at Human recombinant PDE4D2 (10 uM test compound), 50 to 80%. For the same compound, the figures for the EC50 at human wild type-CFTR [2] and at human wild type-CFTR [5] were 0.2 to 2 µM and no less than 2 µM, respectively. In addition, in data set [3], the solubility at 90 min is less than 0.1 µg/mL.
`COC(=O)c1ccc(NC(=O)c2cc3nccc(-c4ccc(OC)c(OC)c4)n3n2)cc1` [Compound 11, methyl 4-(7-(3,4-dimethoxyphenyl)pyrazolo[1,5-a]pyrimidine-2-carboxamido)benzoate]: the inhibition at 10 µM (on Human recombinant PDE4C1; in data set [1]; in data set [4]; at Human recombinant PDE4D2) was greater than 80% each time. Besides, the EC50 on human wild type-CFTR [2] and at human wild type-CFTR [5] was less than 0.2 µM throughout. In data set [3], the solubility at 90 min was less than 0.1 µg/mL.
With `COc1ccc(-c2ccnc3cc(C(=O)Nc4ccc(N)cc4)nn23)cc1OC` [Compound 257, N-(4-aminophenyl)-7-(3,4-dimethoxyphenyl)pyrazolo [1,5-a]pyrimidine-2-carboxamide], the inhibition at 10 µM (on Human recombinant PDE4C1 (10 uM test compound); in data set [1] (10 uM test compound); in data set [4] (10 uM test compound); at Human recombinant PDE4D2 (10 uM test compound)) was greater than 80% in each case. Moreover, the EC50 at human wild type-CFTR [2] is less than 0.2 µM; on human wild type-CFTR [5], 0.2 to 2 µM. In addition, the solubility at 90 min in data set [3] was less than 0.1 µg/mL. Besides, in the data set with C57BL/6 female mice, the “Ratio of tear volume” value turned out to be 1.16.
As for `COc1ccc(-c2ccnc3cc(C(=O)Nc4ccc(N5CCOCC5)cn4)nn23)cc1OC` [Compound 205, 7-(3,4-dimethoxyphenyl)-N-(5-morpholinopyridin-2-yl)pyrazolo[1,5-a]pyrimidine-2-carboxamide], the inhibition at 10 µM (on Human recombinant PDE4C1 (10 uM test compound); in data set [1] (10 uM test compound); in data set [4] (10 uM test compound); on Human recombinant PDE4D2 (10 uM test compound)) was greater than 80% throughout. Further, the EC50 on human wild type-CFTR [2] and at human wild type-CFTR [5] was less than 0.2 µM throughout. Also, in the data set on C57BL/6 female mice, the “Ratio of tear volume” value amounted to 1.12.
`COC(=O)C(=Cc1ccccc1)NC(=O)c1cc2nccc(-c3ccc(OC)c(OC)c3)n2n1` [Compound 105, methyl 2-(7-(3,4-dimethoxyphenyl)pyrazolo [1,5-a]pyrimidine-2-carboxamido) 3-phenylacrylate]: the inhibition at 10 µM (at Human recombinant PDE4C1 (10 uM test compound); in data set [1] (10 uM test compound); in data set [4] (10 uM test compound); on Human recombinant PDE4D2 (10 uM test compound)) was greater than 80% in each case. Moreover, the results for the EC50 at human wild type-CFTR [2] and at human wild type-CFTR [5] were less than 0.2 µM and 0.2 to 2 µM, respectively. Moreover, the solubility at 90 min in data set [3] was less than 0.1 µg/mL.
As to `COC(=O)c1ccc(NC(=O)c2cc3nccc(-c4ccc(OC)c(F)c4)n3n2)cc1` [Compound 33, methyl 4-(7-(3-fluoro-4-methoxyphenyl)pyrazolo [1,5-a]pyrimidine-2-carboxamido)benzoate], the inhibition at 10 µM on Human recombinant PDE4C1 (10 uM test compound) is less than 50%; in data set [1] (10 uM test compound), 50 to 80%; in data set [4] (10 uM test compound), 50 to 80%; on Human recombinant PDE4D2 (10 uM test compound) it was 50 to 80%. For the same compound, the EC50 on human wild type-CFTR [2] was 0.2 to 2 µM; at human wild type-CFTR [5], no less than 2 µM. Further, the solubility at 90 min in data set [3] is less than 0.1 µg/mL.
Regarding `COc1ccc(-c2ccnc3cc(C(=O)Nc4ccc(O)cc4)nn23)cc1OC` [Compound 15, 7-(3,4-dimethoxyphenyl)-N-(4-hydroxyphenyl)pyrazolo[1,5-a]pyrimidine-2-carboxamide], the inhibition at 10 µM (at Human recombinant PDE4C1 (10 uM test compound); in data set [1] (10 uM test compound); in data set [4] (10 uM test compound); on Human recombinant PDE4D2 (10 uM test compound)) was greater than 80% each time. In addition, the EC50 on human wild type-CFTR [2] and at human wild type-CFTR [5] was less than 0.2 µM throughout. Also, the solubility at 90 min in data set [3] is less than 0.1 µg/mL. The “Ratio of tear volume” value in the data set with C57BL/6 female mice is listed as 1.29.
For the compound `COc1ccc(-c2ccnc3cc(C(=O)Nc4ccc(C(=O)N[C@H](C(=O)N5CCOCC5)C(C)C)cc4)nn23)cc1OC` [Compound 147, (S)-7-(3,4-dimethoxyphenyl)-N-(4-((3-methyl-1-morpholino-1-oxobutan-2-yl)carbamoyl)phenyl) pyrazolo[1,5-a]pyrimidine-2-carboxamide], the inhibition at 10 µM (at Human recombinant PDE4C1 (10 uM test compound); in data set [1] (10 uM test compound); in data set [4] (10 uM test compound); at Human recombinant PDE4D2 (10 uM test compound)) was greater than 80% in each case. Moreover, the EC50 at human wild type-CFTR [2] and at human wild type-CFTR [5] was less than 0.2 µM each time. Moreover, the solubility at 90 min in data set [3] is less than 0.1 µg/mL. For the same compound, the “Ratio of tear volume” value in the data set on C57BL/6 female mice is recorded as 1.03.
As for `COc1ccc(-c2ccnc3cc(C(=O)Nc4ccc(C(=O)N5CCN(C)CC5)cc4)nn23)cc1OC` [Compound 97, 7-(3,4-dimethoxyphenyl)-N-(4-(4-methylpiperazine-1-carbonyl)phenyl)pyrazolo[1,5-a]pyrimidine-2-carboxamide], the inhibition at 10 µM (at Human recombinant PDE4C1 (10 uM test compound); in data set [1] (10 uM test compound); in data set [4] (10 uM test compound); on Human recombinant PDE4D2 (10 uM test compound)) was greater than 80% throughout. The EC50 at human wild type-CFTR [2] and on human wild type-CFTR [5] was 0.2 to 2 µM each time. Further, in data set [3], the solubility at 90 min lay in the range of 0.1 to 10 µg/mL (≈ 0.2 to 20 µM). In addition, the “Ratio of tear volume” value in the data set with C57BL/6 female mice was found to be 0.95.
Regarding `COc1ccc(-c2ccnc3cc(C(=O)NC45CCC(C(=O)N6CCN(C)CC6)(CC4)CC5)nn23)cc1OC` [Compound 151, 7-(3,4-dimethoxyphenyl)-N-(4-(4-methylpiperazine-1-carbonyl)bicyclo[2.2.2]octan-1-yl)pyrazolo[1,5-a]pyrimidine-2-carboxamide], the inhibition at 10 µM (at Human recombinant PDE4C1 (10 uM test compound); in data set [1] (10 uM test compound); in data set [4] (10 uM test compound); at Human recombinant PDE4D2 (10 uM test compound)) was greater than 80% throughout. Moreover, the EC50 on human wild type-CFTR [2] was less than 0.2 µM; at human wild type-CFTR [5] it was 0.2 to 2 µM. In addition, the solubility at 90 min in data set [3] is greater than 10 µg/mL. The “Ratio of tear volume” value with C57BL/6 female mice is 1.40.
